According to patent publication US4228292A, “N-Substituted benzothiazolines and benzoxazolines and their use as herbicides and plant growth regulants” (Monsanto Company, priority 1978, dated 1980):

How the values were obtained:
soybean plants = assay: plant growth regulating activity on soybean plants; type: in vivo, variety Williams
Experimental: A number of soybean plants, variety Williams, were grown from seeds in plastic pots in the greenhouse for a period of one week at which time the plants are thinned to one plant per pot. When the second trifoliate leaf (three weeks) was fully expanded, the plants were treated with a solution of the active ingredient in acetone and water. Aqueous Tween 20 was used as a surfactant.
When the fifth trifoliate leaf (four to five weeks) was fully expanded, the treated plants were compared with the non-treated control plants and the observations recorded.

Sorghum [1] = assay: pre-emergent herbicidal test; type: in vivo; conditions: P, 4 WAT; also: ranges in brackets are in %
Experimental: (§1) The pre-emergent test was conducted as follows:
(§2) A good grade of top soil was placed in aluminum pans and compactd to a depth of 0.95 to 1.27 cm. from the top of the pan. On the top of the soil was placed a predetermined number of seeds or vegetative propagules of various plant species. The soil required to level fill the pans after seeding or adding vegetative propagules was weighed into a pan. A known amount of the herbicidal active ingredient applied in a solvent or as a wettable powder and the soil were thoroughly mixed, and used as a cover layer for prepared pans. After treatment the pans were moved into a greenhouse bench where they were watered from below as needed to give adequate moisture for germination and growth.
(§3) A herbicidal rating code was used to signify the extent of phytotoxicity of each species. The ratings are defined as follows: […]

Hemp Sesbania [2] = assay: pre-emergent herbicidal test; type: in vivo; conditions: R, 4 WAT; also: ranges in brackets are in %
Experimental: as §1, §2, §3

Sugar Beet [3] = assay: pre-emergent herbicidal test; type: in vivo; conditions: M, 4 WAT; also: ranges in brackets are in %
Experimental: as §1, §2, §3

Rice [4] = assay: pre-emergent herbicidal test; type: in vivo; conditions: O, 4 WAT; also: ranges in brackets are in %
Experimental: as §1, §2, §3

Panicum Spp [5] = assay: pre-emergent herbicidal test; type: in vivo; conditions: S, 4 WAT; also: ranges in brackets are in %
Experimental: as §1, §2, §3

Soybean [6] = assay: pre-emergent herbicidal test; type: in vivo; conditions: L, 4 WAT; also: ranges in brackets are in %
Experimental: as §1, §2, §3

Wild Buckwheat [7] = assay: pre-emergent herbicidal test; type: in vivo; conditions: Q, 4 WAT; also: ranges in brackets are in %
Experimental: as §1, §2, §3

Wheat [8] = assay: pre-emergent herbicidal test; type: in vivo; conditions: N, 4 WAT; also: ranges in brackets are in %
Experimental: as §1, §2, §3

Crabgrass [9] = assay: pre-emergent herbicidal test; type: in vivo; conditions: T, 4 WAT; also: ranges in brackets are in %
Experimental: as §1, §2, §3

Sorghum [10] = assay: post-emergent herbicidal test; type: in vivo; conditions: P; also: ranges in brackets are in %
Experimental: (§4) The post-emergent tests were conducted as follows:
(§5) The herbicidal active ingredients are applied in spray form to two or three-week old specimens of various plant species. The spray, a solution or wettable powder suspension containing the appropriate rate of herbicidal active ingredient to give the desired test rate and a surfactant, is applied to the plants. The treated plants are placed in a greenhouse and approximately two or four weeks later the effects are observed and recorded. The results are shown in Tables IX and X in which the post-emergent herbicidal rating code is as follows: […]

Hemp Sesbania [11] = assay: post-emergent herbicidal test; type: in vivo; conditions: R; also: ranges in brackets are in %
Experimental: as §4, §5

Sugar Beet [12] = assay: post-emergent herbicidal test; type: in vivo; conditions: M; also: ranges in brackets are in %
Experimental: as §4, §5

Rice [13] = assay: post-emergent herbicidal test; type: in vivo; conditions: O; also: ranges in brackets are in %
Experimental: as §4, §5

Panicum Spp [14] = assay: post-emergent herbicidal test; type: in vivo; conditions: S; also: ranges in brackets are in %
Experimental: as §4, §5

Soybean [15] = assay: post-emergent herbicidal test; type: in vivo; conditions: L; also: ranges in brackets are in %
Experimental: as §4, §5

Wild Buckwheat [16] = assay: post-emergent herbicidal test; type: in vivo; conditions: Q; also: ranges in brackets are in %
Experimental: as §4, §5

Wheat [17] = assay: post-emergent herbicidal test; type: in vivo; conditions: N; also: ranges in brackets are in %
Experimental: as §4, §5

Crabgrass [18] = assay: post-emergent herbicidal test; type: in vivo; conditions: T; also: ranges in brackets are in %
Experimental: as §4, §5

## COC(=N)CCCn1c(=O)sc2ccccc21 [Compound 18]
Soybean plants; 0.112 kg/h
  plant growth regulant observations: No response.
Soybean plants; 0.56 kg/h
  plant growth regulant observations: No response.

## COC(=N)Cn1c(=O)sc2cc(Br)ccc21 [Compound 20]
Soybean plants; 0.112 kg/h
  plant growth regulant observations: Leaf alteration of new growth.

## COC(=N)Cn1c(=O)oc2ccccc21 [Compound 22]
Soybean plants; 0.56 kg/h
  plant growth regulant observations: Leaf alteration of new growth.

## COC(=N)Cn1c(=O)sc2ccccc21 [Compound 24]
Sorghum [1]; 1.12 kg/h
  pre-emergent herbicidal rating: 0 (0-24)
Sorghum [1]; 5.6 kg/h
  pre-emergent herbicidal rating: 0 (0-24)
Hemp Sesbania [2]; 1.12 kg/h
  pre-emergent herbicidal rating: 1 (25-49)
Hemp Sesbania [2]; 5.6 kg/h
  pre-emergent herbicidal rating: 3 (75-100)
Sugar Beet [3]; 1.12 kg/h
  pre-emergent herbicidal rating: 1 (25-49)
Sugar Beet [3]; 5.6 kg/h
  pre-emergent herbicidal rating: 3 (75-100)
Rice [4]; 1.12 kg/h
  pre-emergent herbicidal rating: 0 (0-24)
Rice [4]; 5.6 kg/h
  pre-emergent herbicidal rating: 1 (25-49)
Panicum Spp [5]; 1.12 kg/h
  pre-emergent herbicidal rating: 0 (0-24)
Panicum Spp [5]; 5.6 kg/h
  pre-emergent herbicidal rating: 0 (0-24)
Soybean [6]; 1.12 kg/h
  pre-emergent herbicidal rating: 2 (50-74)
Soybean [6]; 5.6 kg/h
  pre-emergent herbicidal rating: 3 (75-100)
Wild Buckwheat [7]; 1.12 kg/h
  pre-emergent herbicidal rating: 1 (25-49)
Wild Buckwheat [7]; 5.6 kg/h
  pre-emergent herbicidal rating: 3 (75-100)
Wheat [8]; 1.12 kg/h
  pre-emergent herbicidal rating: 1 (25-49)
Wheat [8]; 5.6 kg/h
  pre-emergent herbicidal rating: 1 (25-49)
Crabgrass [9]; 1.12 kg/h
  pre-emergent herbicidal rating: 0 (0-24)
Crabgrass [9]; 5.6 kg/h
  pre-emergent herbicidal rating: 1 (25-49)
Sorghum [10]; 0.056 kg/h, 2 WAT
  post-emergent herbicidal rating: 0 (0-24)
Sorghum [10]; 0.28 kg/h, 4 WAT
  post-emergent herbicidal rating: 0 (0-24)
Sorghum [10]; 1.12 kg/h, 4 WAT
  post-emergent herbicidal rating: 1 (25-49)
Sorghum [10]; 5.6 kg/h, 4 WAT
  post-emergent herbicidal rating: 1 (25-49)
Hemp Sesbania [11]; 0.056 kg/h, 2 WAT
  post-emergent herbicidal rating: 0 (0-24)
Hemp Sesbania [11]; 0.28 kg/h, 4 WAT
  post-emergent herbicidal rating: 1 (25-49)
Hemp Sesbania [11]; 1.12 kg/h, 4 WAT
  post-emergent herbicidal rating: 2 (50-74)
Hemp Sesbania [11]; 5.6 kg/h, 4 WAT
  post-emergent herbicidal rating: 4 (100)
Sugar Beet [12]; 0.056 kg/h, 2 WAT
  post-emergent herbicidal rating: 1 (25-49)
Sugar Beet [12]; 0.28 kg/h, 4 WAT
  post-emergent herbicidal rating: 1 (25-49)
Sugar Beet [12]; 1.12 kg/h, 4 WAT
  post-emergent herbicidal rating: 2 (50-74)
Sugar Beet [12]; 5.6 kg/h, 4 WAT
  post-emergent herbicidal rating: 3 (75-99)
Rice [13]; 0.056 kg/h, 2 WAT
  post-emergent herbicidal rating: 0 (0-24)
Rice [13]; 0.28 kg/h, 4 WAT
  post-emergent herbicidal rating: 0 (0-24)
Rice [13]; 1.12 kg/h, 4 WAT
  post-emergent herbicidal rating: 1 (25-49)
Rice [13]; 5.6 kg/h, 4 WAT
  post-emergent herbicidal rating: 0 (0-24)
Panicum Spp [14]; 0.056 kg/h, 2 WAT
  post-emergent herbicidal rating: 0 (0-24)
Panicum Spp [14]; 0.28 kg/h, 4 WAT
  post-emergent herbicidal rating: 0 (0-24)
Panicum Spp [14]; 1.12 kg/h, 4 WAT
  post-emergent herbicidal rating: 0 (0-24)
Panicum Spp [14]; 5.6 kg/h, 4 WAT
  post-emergent herbicidal rating: 0 (0-24)
Soybean [15]; 0.056 kg/h, 2 WAT
  post-emergent herbicidal rating: 1 (25-49)
Soybean [15]; 0.28 kg/h, 4 WAT
  post-emergent herbicidal rating: 1 (25-49)
Soybean [15]; 1.12 kg/h, 4 WAT
  post-emergent herbicidal rating: 2 (50-74)
Soybean [15]; 5.6 kg/h, 4 WAT
  post-emergent herbicidal rating: 2 (50-74)
Wild Buckwheat [16]; 0.056 kg/h, 2 WAT
  post-emergent herbicidal rating: 1 (25-49)
Wild Buckwheat [16]; 0.28 kg/h, 4 WAT
  post-emergent herbicidal rating: 1 (25-49)
Wild Buckwheat [16]; 1.12 kg/h, 4 WAT
  post-emergent herbicidal rating: 4 (100)
Wild Buckwheat [16]; 5.6 kg/h, 4 WAT
  post-emergent herbicidal rating: 4 (100)
Wheat [17]; 0.056 kg/h, 2 WAT
  post-emergent herbicidal rating: 0 (0-24)
Wheat [17]; 0.28 kg/h, 4 WAT
  post-emergent herbicidal rating: 0 (0-24)
Wheat [17]; 1.12 kg/h, 4 WAT
  post-emergent herbicidal rating: 0 (0-24)
Wheat [17]; 5.6 kg/h, 4 WAT
  post-emergent herbicidal rating: 1 (25-49)
Crabgrass [18]; 0.056 kg/h, 2 WAT
  post-emergent herbicidal rating: 0 (0-24)
Crabgrass [18]; 0.28 kg/h, 4 WAT
  post-emergent herbicidal rating: 0 (0-24)
Crabgrass [18]; 1.12 kg/h, 4 WAT
  post-emergent herbicidal rating: 0 (0-24)
Crabgrass [18]; 5.6 kg/h, 4 WAT
  post-emergent herbicidal rating: 0 (0-24)

## COC(=N)Cn1c(=O)sc2ccc(Cl)cc21 [Compound 27]
Soybean plants; 2.8 kg/h
  plant growth regulant observations: Plants died.
Sorghum [10]; 0.28 kg/h, 2 WAT
  post-emergent herbicidal rating: 0 (0-24)
Sorghum [10]; 1.12 kg/h, 4 WAT
  post-emergent herbicidal rating: 0 (0-24)
Sorghum [10]; 5.6 kg/h, 4 WAT
  post-emergent herbicidal rating: 0 (0-24)
Hemp Sesbania [11]; 0.28 kg/h, 2 WAT
  post-emergent herbicidal rating: 0 (0-24)
Hemp Sesbania [11]; 1.12 kg/h, 4 WAT
  post-emergent herbicidal rating: 2 (50-74)
Hemp Sesbania [11]; 5.6 kg/h, 4 WAT
  post-emergent herbicidal rating: 4 (100)
Sugar Beet [12]; 0.28 kg/h, 2 WAT
  post-emergent herbicidal rating: 1 (25-49)
Sugar Beet [12]; 1.12 kg/h, 4 WAT
  post-emergent herbicidal rating: 3 (75-99)
Sugar Beet [12]; 5.6 kg/h, 4 WAT
  post-emergent herbicidal rating: 3 (75-99)
Rice [13]; 0.28 kg/h, 2 WAT
  post-emergent herbicidal rating: 0 (0-24)
Rice [13]; 1.12 kg/h, 4 WAT
  post-emergent herbicidal rating: 0 (0-24)
Rice [13]; 5.6 kg/h, 4 WAT
  post-emergent herbicidal rating: 0 (0-24)
Panicum Spp [14]; 0.28 kg/h, 2 WAT
  post-emergent herbicidal rating: 0 (0-24)
Panicum Spp [14]; 1.12 kg/h, 4 WAT
  post-emergent herbicidal rating: 0 (0-24)
Panicum Spp [14]; 5.6 kg/h, 4 WAT
  post-emergent herbicidal rating: 0 (0-24)
Soybean [15]; 0.28 kg/h, 2 WAT
  post-emergent herbicidal rating: 1 (25-49)
Soybean [15]; 1.12 kg/h, 4 WAT
  post-emergent herbicidal rating: 2 (50-74)
Soybean [15]; 5.6 kg/h, 4 WAT
  post-emergent herbicidal rating: 3 (75-99)
Wild Buckwheat [16]; 0.28 kg/h, 2 WAT
  post-emergent herbicidal rating: 0 (0-24)
Wild Buckwheat [16]; 1.12 kg/h, 4 WAT
  post-emergent herbicidal rating: 3 (75-99)
Wild Buckwheat [16]; 5.6 kg/h, 4 WAT
  post-emergent herbicidal rating: 4 (100)
Wheat [17]; 0.28 kg/h, 2 WAT
  post-emergent herbicidal rating: 0 (0-24)
Wheat [17]; 1.12 kg/h, 4 WAT
  post-emergent herbicidal rating: 0 (0-24)
Wheat [17]; 5.6 kg/h, 4 WAT
  post-emergent herbicidal rating: 1 (25-49)
Crabgrass [18]; 0.28 kg/h, 2 WAT
  post-emergent herbicidal rating: 0 (0-24)
Crabgrass [18]; 1.12 kg/h, 4 WAT
  post-emergent herbicidal rating: 0 (0-24)
Crabgrass [18]; 5.6 kg/h, 4 WAT
  post-emergent herbicidal rating: 0 (0-24)
